Results reported in US8895695B2, “Template-fixed beta-hairpin peptidomimetics with CXCR4 antagonizing activity” (priority 2003, dated 2014).
Bridge positions count the residues as written; N and C are the ends. Square brackets hold non-standard residues; d marks the D form. Peptide text beside a SMILES is read from it. Phe(4-F) = N[C@@H](Cc1ccc(F)cc1)C(=O)O; 2Nal = N[C@@H](Cc1ccc2ccccc2c1)C(=O)O; 4Pal = N[C@@H](Cc1ccncc1)C(=O)O; Cit = NC(=O)NCCC[C@H](N)C(=O)O; NMeK = CN[C@@H](CCCCN)C(=O)O

Key:
[1] = system: human red blood cells (hRBC); assay: Hemolysis; format: cell-based
Experimental: The peptides were tested for their hemolytic activity against human red blood cells (hRBC). Fresh hRBC were washed three times with phosphate buffered saline (PBS) by centrifugation for 10 min at 2000×g. Peptides at a concentration of 100 μM were incubated with 20% v/v hRBC for 1 hour at 37° C. The final erythrocyte concentration was approximately 0.9×10^9 cells per ml. A value of 0% resp. 100% cell lysis was determined by incubation of the hRBC in the presence of PBS alone and respectively 0.1% Triton X-100 in H2O. The samples were centrifuged and the supernatant was 20-fold diluted in PBS buffer and the optical density (OD) of the sample at […] was measured. The 100% lyses value (OD540H2O) gave an OD540 of approximately 1.3-1.8. Percent hemolysis was calculated as follows: (OD540peptide/OD540H2O)×100%.

CXCR4 = CXCR4 (Homo sapiens, UniProt P61073); assay: Ca2+-assay method 2 (Flexstation, SDF-1 induced calcium mobilization); format: cell-based; parameters: expressed in transfected cells; host or cells: mouse pre-B cell line 300-19; conditions: method 2 (Ex. 54-160), mouse pre-B cell line 300-19 with human CXCR4, 10 nM SDF-1; read-out: IC50 (nM) Ca^2+ assay
CXCR4, sequence (P61073 whole entry): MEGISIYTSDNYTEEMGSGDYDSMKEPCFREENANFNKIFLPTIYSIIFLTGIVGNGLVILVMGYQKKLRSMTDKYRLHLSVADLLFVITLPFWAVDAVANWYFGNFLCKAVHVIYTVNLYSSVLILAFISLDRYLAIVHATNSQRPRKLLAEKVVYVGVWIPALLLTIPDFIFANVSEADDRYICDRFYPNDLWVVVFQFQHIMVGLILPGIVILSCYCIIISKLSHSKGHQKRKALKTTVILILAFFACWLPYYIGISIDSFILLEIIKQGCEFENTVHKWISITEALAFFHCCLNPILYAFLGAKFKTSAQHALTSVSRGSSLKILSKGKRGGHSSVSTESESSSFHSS
Experimental: 2.2. Ca^2+-Assay: CXCR4-Antagonizing Activity of the Peptides.
The cells were batch loaded with the Calcium 3 Assay kit (Molecular Devices) in assay buffer (Hanks Balanced salt solution, HBSS, 20 mM HEPES, pH 7.4, 0.1% BSA) for 1 h at room temperature and then 200,000 labeled cells were dispensed into black 96 well assays plates (Costar No. 3603). A 20-fold concentrated solution of peptide in assay buffer was added to the cells and the whole plate was centrifuged to settle the cells to the bottom of the wells. Calcium mobilization induced by 10 nM stromal-derived factor-1 (SDF-1) was measured in the Flexstation 384 (excitation, 485 nM; emission, 525 nM) for 90 seconds. A maximal change in fluorescence response above baseline was used to calculate antagonist activity. The data for dose response curves (antagonist concentration versus % maximum response) were fitted to a four parameter logistic equation using SoftmaxPro 4.6 (Molecular Devices), from which IC50% values were calculated.

in vitro = conditions: human
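For GI50 in this document: MTT reduction read as absorbance at 595 nm, blank-corrected and expressed as percent growth relative to the time-zero cell reading, triplicate wells per concentration.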

Row | Structure (SMILES) | Hemolysis at 100 μM [1] [%] | IC50 (CXCR4) [nM] | GI50 at 48 h (in vitro) [nM]
1 | CN1C(=O)[C@H](CCCNC(N)=O)NC(=O)[C@H](Cc2ccc(O)cc2)NC(=O)[C@@H]2CSSC[C@H](NC(=O)[C@H](CCCNC(N)=O)NC(=O)[C@H](CCCNC(=N)N)NC(=O)[C@H](Cc3ccc(O)cc3)NC(=O)[C@@H]3CCCN3C(=O)[C@H]3CCCN3C(=O)[C@@H]1CCCCN)C(=O)N[C@@H](CCCNC(=N)N)C(=O)NCC(=O)N1CCC[C@@H]1C(=O)N[C@@H](CCCNC(=N)N)C(=O)N[C@@H](CCCNC(=N)N)C(=O)N[C@@H](Cc1ccc3ccccc3c1)C(=O)N2 [Ex. 127] (cyclo(YR[Cit]CRG[dP]RR[2Nal]CY[Cit][NMeK][dP]P); disulfide 4-11) | 0 | 52.2 | 62000
2 | N=C(N)NCCC[C@@H]1NC(=O)[C@@H]2CSSC[C@H](NC(=O)[C@H](Cc3c[nH]c4ccccc34)NC(=O)[C@H](CCCNC(=N)N)NC(=O)[C@H](CCCNC(=N)N)NC(=O)[C@H]3CCCN3C(=O)CNC1=O)C(=O)N[C@@H](Cc1ccc(O)cc1)C(=O)N[C@@H](CCCNC(N)=O)C(=O)N[C@@H](CCC(N)=O)C(=O)N1CCC[C@@H]1C(=O)N1CCC[C@H]1C(=O)N[C@@H](Cc1ccc(O)cc1)C(=O)N[C@@H](CCCNC(=N)N)C(=O)N[C@@H](CCCNC(N)=O)C(=O)N2 [Ex. 121] (cyclo(YR[Cit]CRG[dP]RRWCY[Cit]Q[dP]P); disulfide 4-11) | 0 | 6.5 | 79000
3 | C[C@@H](O)[C@@H]1NC(=O)[C@H](CCCNC(=N)N)NC(=O)[C@H](Cc2ccc(O)cc2)NC(=O)[C@@H]2CCCN2C(=O)[C@H]2CCCN2C(=O)[C@H](CCCCN)NC(=O)[C@H](CCC(N)=O)NC(=O)[C@H](Cc2ccc(O)cc2)NC(=O)[C@@H]2CSSC[C@H](NC1=O)C(=O)N[C@@H](CCCNC(=N)N)C(=O)NCC(=O)N1CCC[C@@H]1C(=O)N[C@@H](Cc1ccncc1)C(=O)N[C@@H](CCCNC(=N)N)C(=O)N[C@@H](Cc1c[nH]c3ccccc13)C(=O)N2 [Ex. 118] (cyclo(YRTCRG[dP][4Pal]RWCYQK[dP]P); disulfide 4-11) | 0 | 7.6 | 52000
4 | N=C(N)NCCC[C@@H]1NC(=O)[C@@H]2CSSC[C@H](NC(=O)[C@H](Cc3c[nH]c4ccccc34)NC(=O)[C@H](CCCNC(=N)N)NC(=O)[C@H](Cc3ccc(F)cc3)NC(=O)[C@H]3CCCN3C(=O)CNC1=O)C(=O)N[C@@H](Cc1ccc(O)cc1)C(=O)N[C@@H](CCCNC(N)=O)C(=O)N[C@@H](CCCCN)C(=O)N1CCC[C@@H]1C(=O)N1CCC[C@H]1C(=O)N[C@@H](Cc1ccc(O)cc1)C(=O)N[C@@H](CCCNC(=N)N)C(=O)N[C@@H](CCCNC(N)=O)C(=O)N2 [Ex. 122] (cyclo(YR[Cit]CRG[dP][Phe(4-F)]RWCY[Cit]K[dP]P); disulfide 4-11) | 0 | 8.8 | 60000
5 | N=C(N)NCCC[C@@H]1NC(=O)[C@@H]2CSSC[C@H](NC(=O)[C@H](Cc3ccc4ccccc4c3)NC(=O)[C@H](CCCNC(=N)N)NC(=O)[C@H](CCCNC(=N)N)NC(=O)[C@H]3CCCN3C(=O)CNC1=O)C(=O)N[C@@H](Cc1ccc(O)cc1)C(=O)N[C@@H](Cc1c[nH]cn1)C(=O)N[C@@H](CCCCN)C(=O)N1CCC[C@@H]1C(=O)N1CCC[C@H]1C(=O)N[C@@H](Cc1ccc(O)cc1)C(=O)N[C@@H](CCCNC(=N)N)C(=O)N[C@@H](CCCNC(N)=O)C(=O)N2 [Ex. 58] (cyclo(YR[Cit]CRG[dP]RR[2Nal]CYHK[dP]P); disulfide 4-11) | 0 | 10.5 | 18000
6 | N=C(N)NCCC[C@@H]1NC(=O)[C@@H]2CSSC[C@H](NC(=O)[C@H](Cc3ccc4ccccc4c3)NC(=O)[C@H](CCCNC(=N)N)NC(=O)[C@H](CCCNC(=N)N)NC(=O)[C@H]3CCCN3C(=O)CNC1=O)C(=O)N[C@@H](Cc1ccc(O)cc1)C(=O)N[C@@H](CC(N)=O)C(=O)N[C@@H](CCCCN)C(=O)N1CCC[C@@H]1C(=O)N1CCC[C@H]1C(=O)N[C@@H](Cc1ccc(O)cc1)C(=O)N[C@@H](CCCNC(=N)N)C(=O)N[C@@H](CCCNC(N)=O)C(=O)N2 [Ex. 77] (cyclo(YR[Cit]CRG[dP]RR[2Nal]CYNK[dP]P); disulfide 4-11) | 0.2 | 7 | > 100000
7 | N=C(N)NCCC[C@@H]1NC(=O)[C@@H]2CSSC[C@H](NC(=O)[C@H](Cc3ccc4ccccc4c3)NC(=O)[C@H](CCCNC(=N)N)NC(=O)[C@H](CCCNC(=N)N)NC(=O)[C@H]3CCCN3C(=O)CNC1=O)C(=O)N[C@@H](Cc1ccc(O)cc1)C(=O)N[C@@H](CCC(N)=O)C(=O)N[C@@H](CCCCN)C(=O)N1CCC[C@@H]1C(=O)N1CCC[C@H]1C(=O)N[C@@H](Cc1ccc(O)cc1)C(=O)N[C@@H](CCCNC(=N)N)C(=O)N[C@@H](Cc1c[nH]c3ccccc13)C(=O)N2 [Ex. 73] (cyclo(YRWCRG[dP]RR[2Nal]CYQK[dP]P); disulfide 4-11) | 0.3 | 8.8 | 20000
8 | N=C(N)NCCC[C@@H]1NC(=O)[C@@H]2CSSC[C@H](NC(=O)[C@H](Cc3c[nH]c4ccccc34)NC(=O)[C@H](CCCNC(=N)N)NC(=O)[C@H](CCCNC(=N)N)NC(=O)[C@H]3CCCN3C(=O)CNC1=O)C(=O)N[C@@H](Cc1ccc(O)cc1)C(=O)N[C@@H](CCCNC(N)=O)C(=O)N[C@@H](CCCCN)C(=O)N1CCC[C@@H]1C(=O)N1CCC[C@H]1C(=O)N[C@@H](Cc1ccc(O)cc1)C(=O)N[C@@H](CCCNC(=N)N)C(=O)N[C@@H](CCCNC(N)=O)C(=O)N2 [Ex. 123] (cyclo(YR[Cit]CRG[dP]RRWCY[Cit]K[dP]P); disulfide 4-11) | 0 | 10 | 80000
9 | N=C(N)NCCC[C@@H]1NC(=O)[C@@H]2CSSC[C@H](NC(=O)[C@H](Cc3c[nH]c4ccccc34)NC(=O)[C@H](CCCNC(=N)N)NC(=O)[C@H](CCCNC(=N)N)NC(=O)[C@H]3CCCN3C(=O)CNC1=O)C(=O)N[C@@H](Cc1ccc(O)cc1)C(=O)N[C@@H](CCCNC(N)=O)C(=O)N[C@@H](CCCCN)C(=O)N1CCC[C@@H]1C(=O)N1CCC[C@H]1C(=O)N[C@@H](Cc1ccccc1)C(=O)N[C@@H](CCCNC(=N)N)C(=O)N[C@@H](CCCNC(N)=O)C(=O)N2 [Ex. 107] (cyclo(FR[Cit]CRG[dP]RRWCY[Cit]K[dP]P); disulfide 4-11) | 0.4 | 3.8 | 50000
10 | N=C(N)NCCC[C@@H]1NC(=O)[C@@H]2CSSC[C@H](NC(=O)[C@H](Cc3ccc4ccccc4c3)NC(=O)[C@H](CCCNC(=N)N)NC(=O)[C@H](CCCNC(=N)N)NC(=O)[C@H]3CCCN3C(=O)CNC1=O)C(=O)N[C@@H](Cc1ccc(O)cc1)C(=O)N[C@@H](CCC(N)=O)C(=O)N[C@@H](CCCCN)C(=O)N1CCC[C@@H]1C(=O)N1CCC[C@H]1C(=O)N[C@@H](Cc1c[nH]c3ccccc13)C(=O)N[C@@H](CCCNC(=N)N)C(=O)N[C@@H](CCCNC(N)=O)C(=O)N2 [Ex. 66] (cyclo(WR[Cit]CRG[dP]RR[2Nal]CYQK[dP]P); disulfide 4-11) | 0 | 3.8 | 46000
11 | N=C(N)NCCC[C@@H]1NC(=O)[C@@H]2CSSC[C@H](NC(=O)[C@H](Cc3ccc4ccccc4c3)NC(=O)[C@H](CCCNC(=N)N)NC(=O)[C@H](CCCNC(=N)N)NC(=O)[C@H]3CCCN3C(=O)CNC1=O)C(=O)N[C@@H](Cc1ccc(O)cc1)C(=O)N[C@@H](CC(=O)O)C(=O)N[C@@H](CCCCN)C(=O)N1CCC[C@@H]1C(=O)N1CCC[C@H]1C(=O)N[C@@H](Cc1ccc(O)cc1)C(=O)N[C@@H](CCCNC(=N)N)C(=O)N[C@@H](CCCNC(N)=O)C(=O)N2 [Ex. 78] (cyclo(YR[Cit]CRG[dP]RR[2Nal]CYDK[dP]P); disulfide 4-11) | 0.1 | 11 | 69000
12 | N=C(N)NCCC[C@@H]1NC(=O)[C@@H]2CSSC[C@H](NC(=O)[C@H](Cc3ccc(O)cc3)NC(=O)[C@H](CCCNC(=N)N)NC(=O)[C@H](CCCNC(=N)N)NC(=O)[C@H]3CCCN3C(=O)CNC1=O)C(=O)N[C@@H](CCCNC(N)=O)C(=O)N[C@@H](Cc1ccc(O)cc1)C(=O)N[C@@H](CCCCN)C(=O)N1CCC[C@@H]1C(=O)N1CCC[C@H]1C(=O)N[C@@H](Cc1ccc(O)cc1)C(=O)N[C@@H](CCCNC(=N)N)C(=O)N[C@@H](CCCNC(N)=O)C(=O)N2 [Ex. 113] (cyclo(YR[Cit]CRG[dP]RRYC[Cit]YK[dP]P); disulfide 4-11) | 0 | 0.62 | 45000
